# Measured values taken from patent publication US9814726B2, “Composition for preventing or treating fatty liver diseases” (LG CHEM, LTD., priority 2014, dated 2017).
# Columns and labels:
# [1] = system: C57BL/6J Lep(−/−) male (ob/ob) mice; assay: Obese fatty liver model: ob/ob mice on normal chow diet, oral treatment for 4 weeks, liver and serum analysis; assay type: in vivo, mouse
# Procedure: As experimental animals, 6-week-old male ob/+ mouse for control, and 6-week-old C57BL/6J Lep(−/−) male (ob/ob) mice were purchased from Harlan (Indianapolis, Ind.). The purchased mice were maintained under standard condition (25° C., 55% humidity and 12-hour light periodicity) with normal chow diet. 30 mice were divided into 3 groups, 10 mice in each group. Group 1 included 10 C57BL/6J(ob/+ control group) mice, Group 2 was vehicle-treated 10 ob/ob mice treated with saline solution, and Group 3 was a group in which (tetrahydropyran-4-yl)-[2-phenyl-5-(1,1-dioxo-thiomorpholin-4-yl)methyl-1H-indol-7-yl]amine (LG Life Sciences Ltd., Daejeon, Republic of Korea) was treated once a day by 20 mg/kg dosage. Saline solution and (tetrahydropyran-4-yl)-[2-phenyl-5-(1,1-dioxo-thiomorpholin-4-yl)methyl-1H-indol-7-yl]amine solution were orally administered for 4 weeks. After treatment, animals were anesthetized and sacrificed, and livers were rapidly taken and stored for the next analysis. […]
# ob/ob mice with MCD diet = assay: Steatohepatitis model accompanying obesity: ob/ob mice with MCD (methionine choline-deficient) diet; assay type: in vivo, mouse
# [2] = ob/ob mice, 20 mg/kg/day, FIG. 2
# [3] = ob/ob mice, oral 20 mg/kg once a day, 4 weeks, p<0.001 vs vehicle
# [4] = ob/ob mice, oral 20 mg/kg once a day, 4 weeks, vs vehicle
# [5] = 20 mg/kg/day, vs vehicle-treated group, FIG. 5A/5B
structure (smiles),measurement,setting,value
"O=S1(=O)CCN(Cc2cc(NC3CCOCC3)c3[nH]c(-c4ccccc4)cc3c2)CC1 [Comp., (tetrahydropyran-4-yl)-[2-phenyl-5-(1,1-dioxo-thiomorpholin-4-yl)methyl-1H-indol-7-yl]amine]","activation of the mitochondrial respiration chain complexes I, III, IV and V","[1]; ob/ob mice liver, 20 mg/kg/day, FIG. 3",meaningfully increased
same,"OXPHOS complexes I, III, IV and V by BN-PAGE: binding between the complexes","[1]; ob/ob mice treated for 4 weeks, 20 mg/kg/day",enhanced
same,"amount of TBARS (oxidative stress, lipid oxidation)",[1]; [2],significant decrease
same,level of 3-NT (nitrotyrosine) in liver,[1]; [2],considerably decreased
same,amount of TNF-alpha in minced liver samples (ELISA),"[1]; ob/ob mice, 20 mg/kg/day, FIG. 4B",significantly low amount
same,"expression of liver mitochondrial complex I, III, IV and V","[1]; ob/ob mice, 20 mg/kg/day, compared with ob/+ control group, FIG. 3A",remained up to the level of the control group
same,expression of mRNA of TNF-α in the liver,"[1]; ob/ob mice, 20 mg/kg/day, vs vehicle",inhibited
same,amount of IL-6 mRNA,"[1]; ob/ob mice, 20 mg/kg/day, vs vehicle group",no difference
same,number of 8-OHdG positive liver cells (DNA damage by oxidative stress),"[1]; ob/ob mice, 20 mg/kg/day, vs vehicle, FIG. 2",remarkably low
same,"phosphorylation of NF-κB p65, NF-κB p105, p38 and JNK 1/2 in liver (immunoblotting)","[1]; ob/ob mice, 20 mg/kg/day, vs vehicle, FIG. 4A",significantly decreased
same,inflammation reaction: infiltration of activated macrophages in liver (immune staining of F4/80 and Cd68),"[1]; ob/ob mice, 20 mg/kg/day, vs vehicle, FIG. 4C and 4D",decreased
same,fatty tissue in liver (H&E staining),"[1]; ob/ob mice, oral 20 mg/kg once a day, 4 weeks, FIG. 1",remarkably decreased
same,TG level in the blood serum,"[1]; ob/ob mice, oral 20 mg/kg once a day, 4 weeks, between groups (data not shown)",did not show much difference
same,amount of liver TG,[1]; [3],significant decrease
same,amount of liver cholesterol,[1]; [3],significant decrease
same,ALT value in blood serum,[1]; [4],decreased
same,AST value in blood serum,[1]; [4],decreased
same,Oil-Red O stained area in liver,"[1]; ob/ob mice, oral 20 mg/kg once a day, 4 weeks, vs vehicle-treated group",remarkably decreased
same,amount of ALT in blood serum,ob/ob mice with MCD diet; 20 mg/kg/day,remarkably decreased
same,amount of AST in blood serum,ob/ob mice with MCD diet; 20 mg/kg/day,remarkably decreased
same,liver TG amount,"ob/ob mice with MCD diet; 20 mg/kg/day (vehicle 400+/−80), FIG. 5C",210+/−20 mg/g liver
same,"phosphorylation of fibrosis markers (NF-γB p65, NF-κB p105, p38 and JNK 1/2)","ob/ob mice with MCD diet; 20 mg/kg/day, FIG. 5D",inhibited
same,decrease of liver TG amount,"ob/ob mice with MCD diet; 20 mg/kg/day, vs vehicle, FIG. 5C",about 50%
same,expression of collagen I (liver fibrosis),ob/ob mice with MCD diet; [5],inhibited
same,intensity of trichrome staining (liver fibrosis),ob/ob mice with MCD diet; [5],inhibited
